Test results reported in PubChem BioAssay AID256 (DTP/NCI, 2004).
Inconclusive results and toxic doses are left out. The calls were made as follows: active = survival T/C of 150% or more; inactive = T/C below 125% in these data.

Tested on: CD2F1 mice, L1210 leukemia ip, survival T/C
Test: NCI In Vivo Anticancer Drug Screen. Data for tumor model L1210 Leukemia (intraperitoneal) in CD2F1 (CDF1) mice
Conditions: higher = longer survival
How it was run: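 Mice carrying a transplanted tumor received test compound or vehicle alone. The value is the measurement in the treated group divided by that in the vehicle-treated control group.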

[1] = endpoint: mean survival time, dose: 6.25 mg/kg/injection, schedule: Q04DX003 (ip), vehicle: saline with Tween-80
[2] = endpoint: mean survival time, dose: 12.5 mg/kg/injection, schedule: Q04DX003 (ip), vehicle: saline with Tween-80
[3] = endpoint: mean survival time, dose: 25.0 mg/kg/injection, schedule: Q04DX003 (ip), vehicle: saline with Tween-80
[4] = endpoint: mean survival time, dose: 100.0 mg/kg/injection, schedule: Q04DX002 (ip), vehicle: saline with Tween-80
[5] = endpoint: mean survival time, dose: 200.0 mg/kg/injection, schedule: Q04DX002 (ip), vehicle: saline with Tween-80

Measured: T/C

O=C(OCC1OC(n2cc[n+]([O-])nc2=O)C(OC(=O)c2ccccc2)C1OC(=O)c1ccccc1)c1ccccc1 (stereo not drawn)
inactive: endpoint: mean survival time, dose: 25.0 mg/kg/injection, schedule: Q01DX005 (ip), vehicle: other 90 % of control | endpoint: mean survival time, dose: 50.0 mg/kg/injection, schedule: Q01DX005 (ip), vehicle: other 101 % of control | endpoint: mean survival time, dose: 100.0 mg/kg/injection, schedule: Q01DX005 (ip), vehicle: other 104 % of control | endpoint: mean survival time, dose: 200.0 mg/kg/injection, schedule: Q01DX005 (ip), vehicle: other 122 % of control | endpoint: mean survival time, dose: 400.0 mg/kg/injection, schedule: Q01DX005 (ip), vehicle: other 113 % of control

Nc1nccc(N2CCCCC2)n1
inactive: [1] 100 % of control | [2] 100 % of control | [3] 97 % of control

CS(=O)(=O)[O-].CS(=O)(=O)[O-].NC1CCCCC1N.[Pt+4] (stereo not drawn)
inactive: endpoint: mean survival time, dose: 0.16 mg/kg/injection, schedule: Q04DX003 (ip), vehicle: other 124 % of control | endpoint: mean survival time, dose: 0.62 mg/kg/injection, schedule: Q01DX009 (ip), vehicle: dextrose 119 % of control | endpoint: mean survival time, dose: 5.0 mg/kg/injection, schedule: Q01DX009 (ip), vehicle: dextrose 93 % of control

O=C(NC/C(Br)=C/Br)Nc1cccc2c1CCCC2
inactive: endpoint: mean survival time, dose: 100.0 mg/kg/injection, schedule: Q04DX003 (ip), vehicle: saline with Tween-80 96 % of control | endpoint: mean survival time, dose: 200.0 mg/kg/injection, schedule: Q04DX003 (ip), vehicle: saline with Tween-80 101 % of control | endpoint: mean survival time, dose: 400.0 mg/kg/injection, schedule: Q04DX003 (ip), vehicle: saline with Tween-80 90 % of control

COc1ccc(C(=O)C(C)(C)C)cc1
inactive: [4] 108 % of control | [5] 97 % of control

Cc1cc(SC(=O)N(C)C)c(S(=O)(=O)F)cc1Cl
inactive: [4] 87 % of control | [5] 87 % of control | endpoint: mean survival time, dose: 400.0 mg/kg/injection, schedule: Q04DX002 (ip), vehicle: saline with Tween-80 93 % of control

CSc1nc(NC2OCC(O)C(O)C2O)cc(=O)n1C (stereo not drawn)
inactive: endpoint: median survival time, dose: 12.5 mg/kg/injection, schedule: Q01DX005 (ip), vehicle: saline 98 % of control | endpoint: median survival time, dose: 25.0 mg/kg/injection, schedule: Q01DX005 (ip), vehicle: saline 102 % of control | endpoint: median survival time, dose: 50.0 mg/kg/injection, schedule: Q01DX005 (ip), vehicle: saline 102 % of control | endpoint: median survival time, dose: 100.0 mg/kg/injection, schedule: Q01DX005 (ip), vehicle: saline 105 % of control | endpoint: median survival time, dose: 200.0 mg/kg/injection, schedule: Q01DX005 (ip), vehicle: saline 100 % of control

CC(=O)Oc1ccc(N2C(=O)C=CC2=O)cc1
inactive: endpoint: mean survival time, dose: 12.5 mg/kg/injection, schedule: Q04DX003 (ip), vehicle: Klucel (hydroxypropylcellulose) (HPC) 96 % of control

CC(=O)[O][Hg][c]1cc(-c2ccc(N=Nc3c(S(=O)(=O)O)cc4cccc(N)c4c3O)cc2)ccc1N=Nc1c(S(=O)(=O)O)cc2cccc(N)c2c1O
inactive: [1] 98 % of control | [2] 96 % of control | [3] 104 % of control
